We go through 28 compounds from US6579882B2, “Cell adhesion-inhibiting antiinflammatory compounds” (Abbott Laboratories, priority 1998, dated 2003).

Type in all cases: cell-based
What all share (settings): 1 μM compound, primary human umbilical vein endothelial cells, compound 24 hours, then TNF 5 ng/mL 6 hours; for inhibition at 1 µM: Homo sapiens, Endothelial cell

One experiment concerns ICAM-1. As to the kind of experiment: CAM ELISA: ICAM-1 expression on TNF-stimulated HUVECs. On the procedure:
(§1) Pooled primary human umbilical vein endothelial cells (HtVEC's) (Clonetics) between passages 3 and 7 were plated in 96-well plates (Costar), 100 μL/well, 5×10^4 cells/mL in Clonetics EBM/2% FBS/EGF/Bovine brain extract/gentamicin in the absence of hydrocortisone. The following day, compounds of the invention were added in 10 μL/well medium, and the plates were incubated at 37° C. 24 hours after compound addition, TNF (Gibco/BRL) in 10 μL/well medium was added to a final concentration of 5 ng/mL, and the cells were incubated an additional 6 hours at 37° C. Then media was removed, and the plates were washed once with D-PBS (Gibco/BRL) and treated with primary antibodies (Becton Dickinson, City), 100 μL/well in D-PBS/2% BSA (Sigma)/0.01% azide. Primary antibodies at an initial concentration of 1 mg/mL were used at the following dilutions: anti-ELAM-1, 1:2000, anti-ICAM-1, 1:2000 and anti-VACM-1, 1:3000. Plates were stored overnight at 4° C., washed 3 times with D-PBS, and treated with secondary antibody (Jackson Labs), 100 μL/well 1:8000 dilution HRP-conjugated donkey anti-mouse IgG(H+L) in D-PBS/2%BSA. Plates were incubated a minimum of 1 hour at room temperature, washed 3 times with D-PBS and treated with 100 μL of orhto-phenylene diamine-2 HCl reagent per well. Plates were developed approximately 15 minutes and neutralized with 100 μL/well 1N sulfuric acid. Absorbance was read at 490 nm.
For orientation: An ELISA detects its analyte on a solid surface through an enzyme-linked reagent.

The test system of the next experiment is VCAM-1. As to the kind of experiment: CAM ELISA: VCAM-1 expression on TNF-stimulated HUVECs. On the procedure: as §1
Another experiment deals with E-Selectin. As to the kind of experiment: CAM ELISA: E-selectin expression on TNF-stimulated HUVECs. As to the method:
as §1

For the compound `NC(=O)c1cc2c(C(=O)Nc3ccc(Cl)cc3)cncc2s1` [Example 238, N-4-(4-Chlorophenyl)thieno[2,3-c]pyridine-2,4-dicarboxamide], the “CAM ELISA % Inhibition at 1 μM ICAM-1” value in the experiment with ICAM-1 came to 47%. Also, the “CAM ELISA % Inhibition at 1 μM VCAM-1” value in the experiment with VCAM-1 came out at 17%. Besides, the “CAM ELISA % Inhibition at 1 μM E-Selectin” value in the experiment on E-Selectin worked out at 46%.

Broadly, the inhibition is how much of the control response was suppressed. Low readings indicate a weak effect, high ones a strong effect. For the compound `CNC(=O)c1cc2c(Oc3ccc(-n4cncn4)cc3)cncc2s1` [Example 219, N-Methyl-4-[4-(1H-1,2,4-triazol-1-yl)phenoxy]thieno[2,3-c]pyridine-2-carboxamide], the inhibition at 1 µM amounted to 68% with ICAM-1, 50% in the experiment on VCAM-1 and 62% with E-Selectin.

On to `Cc1c(C(N)=O)sc2cncc(Oc3ccc(Cl)cc3)c12` [Example 125, 4-(4-Chlorolphenoxy)-3-methylthienol[2,3-c]pyridine-2-carboxamide], for which, in the experiment on ICAM-1, the “CAM ELISA % Inhibition at 1 μM ICAM-1” value stood at 69%. Also, in the experiment on VCAM-1, the “CAM ELISA % Inhibition at 1 μM VCAM-1” value stood at 44%. For the same compound, the “CAM ELISA % Inhibition at 1 μM E-Selectin” value in the experiment with E-Selectin amounted to 72%.

In the case of `NC(=O)c1cc2c(Oc3ccc(-n4ccnc4)cc3)cncc2s1` [Example 217, 4-[4-(1H-Imidazol-1-yl)phenoxy]thieno[2,3-c]pyridine-2-carboxamide], the inhibition at 1 µM with ICAM-1 was found to be 63%; in the experiment with VCAM-1, 42%; in the experiment with E-Selectin it was 64%.

As to `O=C(Nc1cc2c(Oc3ccc(Cl)cc3)cncc2s1)OC1CCOC1` (stereo not drawn) [Example 89, N-(4-(4-chlorophenoxy)thieno[2,3-c]pyridin-2-yl)-O-(3-tetrahydrofuranyl)carbamate], the “CAM ELISA % Inhibition at 1 μM ICAM-1” value in the experiment on ICAM-1 worked out at 64%. Besides, the “CAM ELISA % Inhibition at 1 μM VCAM-1” value with VCAM-1 is 50%. The “CAM ELISA % Inhibition at 1 μM E-Selectin” value with E-Selectin was 62%.

Take `CCOCCOCCOCC(F)(F)c1ccc(Oc2cncc3sc(C(=O)NC)cc23)cc1` [Example 230, 4-(4-[2-[2-(2-Ethoxyethoxy)ethoxy]-1,1-difluoroethyl]phenoxy)-N-methylthieno[2,3-c]pyridine-2-carboxamide]: the inhibition at 1 µM in the experiment on ICAM-1 was 53%; with VCAM-1, 45%; in the experiment with E-Selectin it was 56%.

For the compound `CN(C)C(=O)c1cc2c(Oc3ccc(Cl)cc3)cncc2s1` [Example 104, 4-(4-chlorophenoxy)-N,N-dimethylthieno[2,3-c]pyridine-2-carboxamide], the inhibition at 1 µM was found to be 72% in the experiment on ICAM-1, 53% in the experiment with VCAM-1 and 78% in the experiment on E-Selectin.

As for `NC(=O)c1cc2c(Oc3ccc(Cl)cc3)c(Cl)ncc2s1` [Example 340, 5-Chloro-4-(4-chlorophenoxy)thieno[2,3-c]pyridine-2-carboxamide], the inhibition at 1 µM in the experiment with ICAM-1 amounted to 33%; in the experiment on VCAM-1 it was 20%; with E-Selectin, 18%.

For `Cc1ccc(Sc2c(/C=C/C(N)=O)sc3cnccc23)cc1` [Example 32], in the experiment on ICAM-1, the “CAM ELISA % Inhibition at 1 μM ICAM-1” value is 63%. In addition, the “CAM ELISA % Inhibition at 1 μM VCAM-1” value with VCAM-1 amounted to 41%. In addition, the “CAM ELISA % Inhibition at 1 μM E-Selectin” value in the experiment on E-Selectin turned out to be 75%.

With `Nc1nnc(-c2cc3c(Oc4ccc(C(F)(F)F)cc4)cncc3s2)o1` [Example 280, 5-{4-[4-(Trifluoromethyl)phenoxy]thieno[2,3-c]pyridin-2-yl}-1,3,4-oxadiazol-2-amine], the inhibition at 1 µM turned out to be 77% in the experiment with ICAM-1, 69% with VCAM-1 and 73% with E-Selectin.

For `CN1CCN(C(=O)c2cc3c(Oc4ccc(Cl)cc4)cncc3s2)CC1` [Example 110, 1-[[4-(4-chlorophenoxy)thieno[2,3-c]pyridin-2-yl]carbonyl]-4-methylpiperazine], the inhibition at 1 µM with ICAM-1 was 48%; in the experiment on VCAM-1, 39%; in the experiment with E-Selectin, 44%.

As to `Cc1ccc(Sc2cncc3sc(C(N)=O)cc23)cc1` [Example 19, 4-[(4-methylphenyl)thio]thieno[2,3-c]pyridine-2-carboxamide], the inhibition at 1 µM turned out to be 67% with ICAM-1, 41% in the experiment with VCAM-1 and 79% in the experiment on E-Selectin.

For the compound `OCC(O)c1cc2c(Oc3ccc(Cl)cc3)cncc2s1` (stereo not drawn) [Example 254, 1-[4-(4-Chlorophenoxy)thieno[2,3-c]pyridin-2-yl]-1,2-ethanediol], the figures for the inhibition at 1 µM with ICAM-1, with VCAM-1 and in the experiment with E-Selectin were 28%, 24% and 24%, respectively.

As to `CNC(=O)c1cc2c(Oc3ccc(C(F)(F)F)cc3)cncc2s1` [Example 183, N-Methyl-4-[4-(trifluoromethyl)phenoxy]thieno[2,3-c]pyridine-2-carboxamide], the inhibition at 1 µM was 69% in the experiment on ICAM-1, 48% with VCAM-1 and 63% in the experiment on E-Selectin.

`O=C(NCCN1CCOCC1)c1cc2c(Oc3ccc(Cl)cc3)cncc2s1` [Example 119, 4-(4-chlorophenoxy)-N-[2-(4-morpholinyl)ethyl]thieno[2,3-c]pyridine-2-carboxamide]: the inhibition at 1 µM in the experiment with ICAM-1 worked out at 61%; in the experiment on VCAM-1 it was 36%; in the experiment on E-Selectin, 59%.

Regarding `CNC(=O)c1cc2c(Oc3ccc(Cl)cc3)cnc(Cl)c2s1` [Example 312, 7-Chloro-4-(4-chlorophenoxy)-N-methylthieno[2,3-c]pyridine-2-carboxamide], the figures for the inhibition at 1 µM in the experiment with ICAM-1, with VCAM-1 and in the experiment on E-Selectin were 76%, 42% and 64%, respectively.

Turning to “4-(4-Chlorobenzoyl)-N-methylthieno[2,3-c]pyridine-2-carboxamide [Example 237I]”, in the experiment with ICAM-1, the “CAM ELISA % Inhibition at 1 μM ICAM-1” value was 77%. In addition, the “CAM ELISA % Inhibition at 1 μM VCAM-1” value in the experiment on VCAM-1 worked out at 54%. The “CAM ELISA % Inhibition at 1 μM E-Selectin” value in the experiment with E-Selectin is given as 71%.

As to `NC(=O)c1cc2c(Oc3ccc(Cl)cc3)cnc(Cl)c2s1` [Example 311, 7-Chloro-4-(4-chlorophenoxy)thieno[2,3-c]pyridine-2-carboxamide], the values for the inhibition at 1 µM with ICAM-1, in the experiment on VCAM-1 and in the experiment on E-Selectin were 77%, 36% and 72%, respectively.

In the case of `N#Cc1ccc(Oc2cncc3sc(C(N)=O)cc23)cc1` [Example 187, 4-(4-Cyanophenoxy)thieno[2,3-c]pyridine-2-carboxamide], the results for the inhibition at 1 µM in the experiment with ICAM-1, with VCAM-1 and in the experiment on E-Selectin were 72%, 54% and 78%, respectively.

With `CNC(=O)c1cc2c(Oc3ccc(C4(CO)CC4)cc3)cncc2s1` [Example 225, 4-{4-[1-(Hydroxymethyl)cyclopropyl]phenoxy}-N-methylthieno[2,3-c]pyridine-2-carboxamide], the inhibition at 1 µM stood at 78% with ICAM-1, 60% with VCAM-1 and 75% in the experiment on E-Selectin.

As for `CNC(=O)c1nc2cncc(Oc3ccc(C)cc3)c2s1` [Example 325], the “CAM ELISA % Inhibition at 1 μM ICAM-1” value in the experiment on ICAM-1 is 68%. For the same compound, the “CAM ELISA % Inhibition at 1 μM VCAM-1” value with VCAM-1 worked out at 42%. Moreover, the “CAM ELISA % Inhibition at 1 μM E-Selectin” value in the experiment on E-Selectin came out at 76%.

With `CNC(=O)c1sc2cncc(Oc3ccc(Cl)cc3)c2c1C` [Example 303, 4-(4-Chlorophenoxy)-N, 3-dimethylthieno[2,3-c]pyridine-2-carboxamide], the values for the inhibition at 1 µM in the experiment with ICAM-1, with VCAM-1 and in the experiment with E-Selectin were 66%, 33% and 65%, respectively.

As for `CC(C)OC(=O)OC[n+]1cc(Oc2ccc(Cl)cc2)c2cc(C(N)=O)sc2c1` [Example 233, 2-(Aminocarbonyl)-4-(4-chlorophenoxy)-6-{[(isopropoxycarbonyl)oxy]methyl}thieno[2,3-c]pyridin-6-ium], in the experiment on ICAM-1, the “CAM ELISA % Inhibition at 1 μM ICAM-1” value turned out to be 79%. Besides, in the experiment on VCAM-1, the “CAM ELISA % Inhibition at 1 μM VCAM-1” value worked out at 62%. Moreover, the “CAM ELISA % Inhibition at 1 μM E-Selectin” value in the experiment with E-Selectin worked out at 74%.

As to `CNC(=O)c1cc2c(Oc3ccc(-c4ccccc4)cc3)cncc2s1` [Example 223], the “CAM ELISA % Inhibition at 1 μM ICAM-1” value in the experiment on ICAM-1 was determined as 36%. Further, the “CAM ELISA % Inhibition at 1 μM VCAM-1” value in the experiment with VCAM-1 is 36%. Also, the “CAM ELISA % Inhibition at 1 μM E-Selectin” value in the experiment with E-Selectin was 34%.

With `NC(=O)CNC(=O)c1cc2c(Oc3ccc(Br)cc3)cncc2s1` [Example 161, N-(2-Amino-2-oxoethyl)-4-(4-bromophenoxy)thieno[2,3-c]pyridine-2-carboxamide], the inhibition at 1 µM in the experiment on ICAM-1 was determined as 58%; in the experiment with VCAM-1 it was 51%; in the experiment with E-Selectin, 51%.

As for `Clc1ccc(Oc2cncc3sc(-c4nnn[nH]4)cc23)cc1` [Example 282A, 4-(4-Chlorophenoxy)-2-(1,2,3,4-tetrazol-5-yl)thieno[2,3-c]pyridine], the inhibition at 1 µM came to 15% in the experiment with ICAM-1, 5% in the experiment on VCAM-1 and 8% with E-Selectin.

In the case of `CNC(=O)c1cc2c(Oc3ccc(-c4cccs4)cc3)cncc2s1` [Example 222, N-Methyl-4-[4-(2-thienyl)phenoxy]thieno[2,3-c]pyridine-2-carboxamide], the inhibition at 1 µM is 42% with ICAM-1, 44% in the experiment with VCAM-1 and 40% in the experiment with E-Selectin.

Turning to `Cc1ccc(Oc2cncc3sc(C(N)=O)cc23)cc1` [Example 60, 4-(4-methylphenoxy)thieno[2,3-c]pyridine-2-carboxamide], the figures for the inhibition at 1 µM in the experiment with ICAM-1, in the experiment with VCAM-1 and in the experiment with E-Selectin were 71%, 42% and 74%, respectively.
